Reference: patent US20110142799A1, “MODULATION OF NEURODEGENERATIVE DISEASE BY MODULATING XBP-1 ACTIVITY” (PRESIDENT AND FELLOWS OF HARVARD COLLEGE, priority 2008, published 2011)

Assays:
[1] = test system: mutant SOD1 aggregates in NSC34 cells; test: High molecular weight, detergent insoluble SOD1 aggregates in NSC34 cells by Western blot; assay type: cell-based, human; settings: shXBP-1 and shIRE-1 alpha NSC34 cells expressing SOD1^G85R; 16 h with 10 mM 3-MA or 10 μM wortmannin
From the text: Stable motoneuron cell lines with reduced levels of XBP-1, IRE1α, Beclin-1 and EDEM were generated using methods previously described (Hetz et al., 2007) by targeting the respective mRNA with shRNA using the lentiviral expression vector pLKO.1 and puromycin selection. As control empty vector or a shRNA against the luciferase gene were employed. Constructs were generated by The Broad Institute (Boston, USA) based on different criteria for shRNA design (see broad.mit.edu/genome_bio/trc/rnai.html). A total of five different constructs for each gene were screened and the most efficient one was selected for further studies. Targeting sequences identified for the mouse XBP-1, IRE1α, Beclin-1 and EDEM mRNA are 5′-[…]-3′,5′-[…]-3′,5′-[…]-3′,5′-[…]-3′,5′-[…]-3′,5′-[…]-3′, 5′-[…]-3′ and 5′-[…]-3′, respectively. […]
Assays using the transient expression of human SOD1^WT and the mutants SOD1^G93A and SOD1^G85R as EGFP fusion proteins were developed. These constructs were employed to visualize and quantify the formation of intracellular SOD1 inclusions in living cells by fluorescent confocal microscopy. […] SOD1 oligomers were visualized in total cell extracts prepared in RIPA buffer and sonication, and then analyzed by Western blot. […]

[2] = test system: autophagosomes in NSC34 cells; test: Autophagosome number (LC3-EGFP dots, electron microscopy) in NSC34 cells; assay type: cell-based; settings: shXBP-1 cells, 16 h with 10 mM 3-MA
Protocol: Lysosomes or acidic compartments were visualized with two different assays. Living cells were stained with 200 nM lysotraker or 600 nM Acridine orange for 45 min at 37 C and 5% CO2. Cells were washed three times with cold PBS and then fixed for 30 min with 4% formaldehyde on ice, then maintained in PBS containing 0.4% formaldehyde for visualization on a confocal microscope. Autophagosomes were visualized after the expression of LC3-EGFP (Kabeya et al., 2000. EMBO J. 19, 5720-5728) or LC3-dsRED after the transient transfection of low amount of DNA (⅓ amount of recommended concentrations by transfection kit). As control experiments, cells were treated with 10 mM 3-MA autophagy inhibitor. All quantifications were performed at least in a total of 150 cells performed in duplicate for each independent experiment.
Autophagosomes were also visualized by transmission electron microscopy. Cells were fixed with 1.25% formaldehyde, 2.5% glutaraldehyde, 0.03% picric acid in 100 mM sodium cacodylate buffer. After washing with 100 mM sodium cacodylate buffer, tissues were treated for 1 h with 1% osmium tetroxide and 1.5% potassium ferrocyanide, and then 30 min with 0.5% uranyl acetate in 50 mM maleate buffer, pH 5.15. After dehydration in ethanol, cells were treated for 1 h in propylenoxide and then embedded in Epon/Araldite resin. […]

Question: `Cn1cnc(N)c2ncnc1-2` [3-MA, 3-methyladenine] was tested. Which “SOD1 aggregation after PI3-kinase / autophagy inhibitor” value [1] did it give?
Answer: recovery of mutant SOD1 aggregation in knockdown cells

Question: What about the “number of cells containing more than four autophagosomes per cell after 3-MA” value [2] of the same molecule?
Answer: decreased
